One assay addresses T1, CYP1A2 (Homo sapiens, UniProt P05177).
T1 sequence (P05177 1-516): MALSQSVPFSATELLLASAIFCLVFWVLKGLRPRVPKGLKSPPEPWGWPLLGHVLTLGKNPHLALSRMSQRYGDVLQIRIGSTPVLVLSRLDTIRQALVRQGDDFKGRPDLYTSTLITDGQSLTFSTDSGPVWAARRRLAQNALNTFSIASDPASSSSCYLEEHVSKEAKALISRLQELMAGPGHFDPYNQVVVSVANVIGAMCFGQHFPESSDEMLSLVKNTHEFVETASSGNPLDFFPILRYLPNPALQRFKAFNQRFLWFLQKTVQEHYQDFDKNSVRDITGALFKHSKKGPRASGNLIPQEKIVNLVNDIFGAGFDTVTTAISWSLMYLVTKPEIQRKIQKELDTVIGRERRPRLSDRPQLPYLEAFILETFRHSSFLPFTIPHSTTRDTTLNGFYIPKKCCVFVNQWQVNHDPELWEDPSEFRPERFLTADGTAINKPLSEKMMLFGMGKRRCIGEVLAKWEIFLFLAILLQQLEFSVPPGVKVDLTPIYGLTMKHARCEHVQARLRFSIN
The assay can be described thus: CYP1A2 inhibition (fluorescent substrate CEC). It is filed as in vitro ADME. To be noted: read-out: Cyp IC50 1A2. The gist of the method:
(§1)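 IC50 derives from metabolite fluorescence against compound concentration, read at excitation 409 nm and emission 460 nm for CYP1A2/2C19 or 530 nm for CYP2C9/2D6. Incubations ran at 37° C for 15 min (1A2), 45 min (2C9) or 30 min (2C19, 2D6), after serial dilution into NADPH cofactor mix and 10 min preincubation.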

The target of another assay is CYP2C19 (Homo sapiens, UniProt P33261). The assay can be described thus: CYP2C19 inhibition (fluorescent substrate CEC). The format is in vitro ADME. To be noted: read-out: Cyp IC50 2C19. The gist of the method: as §1
Chain of CYP2C19 (P33261 whole entry): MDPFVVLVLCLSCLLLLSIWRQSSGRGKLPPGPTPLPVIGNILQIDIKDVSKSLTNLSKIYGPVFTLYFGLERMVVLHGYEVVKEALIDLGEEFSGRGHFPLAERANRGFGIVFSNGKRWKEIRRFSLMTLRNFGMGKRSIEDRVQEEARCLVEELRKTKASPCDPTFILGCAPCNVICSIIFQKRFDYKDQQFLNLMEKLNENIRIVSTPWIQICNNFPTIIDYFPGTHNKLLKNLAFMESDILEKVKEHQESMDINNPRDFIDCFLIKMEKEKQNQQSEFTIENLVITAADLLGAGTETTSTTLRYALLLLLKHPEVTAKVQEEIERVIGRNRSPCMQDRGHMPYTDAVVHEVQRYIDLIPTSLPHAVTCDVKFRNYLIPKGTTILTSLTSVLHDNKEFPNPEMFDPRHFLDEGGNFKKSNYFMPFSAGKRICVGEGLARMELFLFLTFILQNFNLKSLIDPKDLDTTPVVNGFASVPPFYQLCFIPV
In another assay the target is CYP2D6 (Homo sapiens, UniProt P10635). Nature of the assay: CYP2D6 inhibition (fluorescent substrate AMMC). The format is in vitro ADME. To be noted: read-out: Cyp IC50 2D6. An outline of the steps: as §1
Chain of CYP2D6 (P10635 whole entry): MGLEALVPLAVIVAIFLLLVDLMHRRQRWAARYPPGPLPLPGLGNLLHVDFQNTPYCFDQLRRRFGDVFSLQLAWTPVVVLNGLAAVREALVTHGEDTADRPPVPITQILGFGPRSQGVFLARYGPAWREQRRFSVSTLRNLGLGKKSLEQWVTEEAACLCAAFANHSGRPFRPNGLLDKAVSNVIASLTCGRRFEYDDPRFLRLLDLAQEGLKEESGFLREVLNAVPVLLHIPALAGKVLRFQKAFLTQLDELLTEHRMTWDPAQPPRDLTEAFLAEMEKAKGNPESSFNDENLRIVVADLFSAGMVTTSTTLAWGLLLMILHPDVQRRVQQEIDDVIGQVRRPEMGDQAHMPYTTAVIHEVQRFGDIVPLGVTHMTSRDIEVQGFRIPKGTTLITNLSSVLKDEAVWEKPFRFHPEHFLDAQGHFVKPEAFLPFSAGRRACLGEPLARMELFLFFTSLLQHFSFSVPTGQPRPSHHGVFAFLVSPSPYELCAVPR
Another assay concerns SKNSH cells. The assay can be described thus: SKNSH (human neuroblastoma) cell proliferation assay (ATPlite). As to conditions: SK-N-SH, read-out: Inhibition of Cell Proliferation IC50, SKNSH. It is filed as cell-based. The gist of the method:
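Fms/Trk inhibitor efficacy was tested by proliferation of SKNSH neuroblastoma cells. After 3 days of compound exposure at 37° C. in 5% CO2, 20 μL per well of ATPlite 1 step reagent was added, plates sat 10 minutes at room temperature, and luminescence, proportional to cell number, was read on a Safire reader to derive IC50.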
For orientation: Cellular ATP, detected with luciferase, serves as a proxy for viable cell number.

We go through 11 compounds from patent US8901118B2, “Compounds and methods for kinase modulation, and indications therefor” (Plexxikon Inc., priority 2010, dated 2014).

A value given as a limit tells only on which side of the number the result lay.

As for `Cc1cnc2[nH]cc(Cc3ccc(NC4CCCCC4)nc3F)c2c1` [Compound P-3008, cyclohexyl-[6-fluoro-5-(5-methyl-1H-pyrrolo[2,3-b]pyridin-3-ylmethyl)-pyridin-2-yl]-amine], the values for the IC50 at CYP1A2, on CYP2C19 and at CYP2D6 were greater than 10 µM, less than 5 µM and greater than 10 µM, respectively.

`Fc1nc(Nc2ccc(C3CC3)nc2)ccc1Cc1c[nH]c2ncnc(C3CC3)c12` [Compound P-4041, (6-Cyclopropyl-pyridin-3-yl)-[5-(4-cyclopropyl-7H-pyrrolo[2,3-d]pyrimidin-5-ylmethyl)-6-fluoro-pyridin-2-yl]-amine]: the results for the IC50 on CYP1A2, on CYP2C19 and at CYP2D6 were 5 to 10 µM, less than 5 µM and greater than 10 µM, respectively.

In the case of `Nc1ncnc2[nH]cc(C(=O)c3ccc(NC4CCC(F)(F)CC4)nc3Cl)c12` [Compound P-4046, (4-amino-7H-pyrrolo[2,3-d]pyrimidin-5-yl)-[2-chloro-6-[(4,4-difluorocyclohexyl)amino]-3-pyridyl]methanone], the IC50 in the assay with SKNSH cells was less than 10 µM.

Turning to `CC(C)=CNc1ncnc2[nH]cc(C(=O)c3ccc(NC4CCC(F)(F)CC4)nc3Cl)c12` [Compound P-4047, [2-chloro-6-[(4,4-difluorocyclohexyl)amino]-3-pyridyl]-[4-(2-methylprop-1-enylamino)-7H-pyrrolo[2,3-d]pyrimidin-5-yl]methanone], the IC50 on CYP1A2, on CYP2C19 and at CYP2D6 was greater than 10 µM in each case.

Consider `Nc1ncnc2[nH]cc(C(=O)c3ccc(Nc4ccc(C5CC5)nc4)nc3F)c12` [Compound P-4048, (4-amino-7H-pyrrolo[2,3-d]pyrimidin-5-yl)-[6-[(6-cyclopropyl-3-pyridyl)amino]-2-fluoro-3-pyridyl]methanone], for which the IC50 is less than 1 µM in the assay with SKNSH cells, greater than 10 µM on CYP1A2, greater than 10 µM on CYP2C19 and greater than 10 µM on CYP2D6.

For the compound `CC(C)(O)CNc1ncnc2[nH]cc(C(=O)c3ccc(Nc4ccc(C5CC5)nc4)nc3F)c12` [Compound P-4049, [6-[(6-cyclopropyl-3-pyridyl)amino]-2-fluoro-3-pyridyl]-[4-[(2-hydroxy-2-methyl-propyl)amino]-7H-pyrrolo[2,3-d]pyrimidin-5-yl]methanone], the IC50 with SKNSH cells was less than 1 µM; at CYP1A2, greater than 10 µM; at CYP2C19, 5 to 10 µM; at CYP2D6 it was greater than 10 µM.

As to `CCNc1ncnc2[nH]cc(C(=O)c3ccc(NC4CCC(F)(F)CC4)nc3Cl)c12` [Compound P-4050, [2-chloro-6-[(4,4-difluorocyclohexyl)amino]-3-pyridyl]-[4-(ethylamino)-7H-pyrrolo[2,3-d]pyrimidin-5-yl]methanone], the IC50 in the assay on SKNSH cells was less than 1 µM; on CYP1A2, greater than 10 µM; at CYP2C19, greater than 10 µM; at CYP2D6, greater than 10 µM.

For `CCNc1ncnc2[nH]cc(C(=O)c3cnc(NC4CCC(F)(F)CC4)c(F)c3)c12` [Compound P-4051, [6-[(4,4-difluorocyclohexyl)amino]-5-fluoro-3-pyridyl]-[4-(ethylamino)-7H-pyrrolo[2,3-d]pyrimidin-5-yl]methanone], the IC50 in the assay with SKNSH cells was less than 1 µM; at CYP1A2, greater than 10 µM; on CYP2C19, greater than 10 µM; at CYP2D6, greater than 10 µM.

For `O=C(c1cnc(NC2CCC(F)(F)CC2)c(F)c1)c1c[nH]c2ncnc(NCC(F)(F)F)c12` [Compound P-4052, [6-[(4,4-difluorocyclohexyl)amino]-5-fluoro-3-pyridyl]-[4-(2,2,2-trifluoroethylamino)-7H-pyrrolo[2,3-d]pyrimidin-5-yl]methanone], the IC50 in the assay with SKNSH cells is greater than 1 µM; on CYP1A2, greater than 10 µM; on CYP2C19 it was greater than 10 µM; at CYP2D6, greater than 10 µM.

Turning to `O=C(c1cnc(NC2CCC(F)(F)CC2)c(F)c1)c1c[nH]c2ncnc(NC3CC3)c12` [Compound P-4053, [4-(cyclopropylamino)-7H-pyrrolo[2,3-d]pyrimidin-5-yl]-[6-[(4,4-difluorocyclohexyl)amino]-5-fluoro-3-pyridyl]methanone], the IC50 in the assay on SKNSH cells was less than 1 µM; on CYP1A2, greater than 10 µM; on CYP2C19, greater than 10 µM; at CYP2D6 it was greater than 10 µM.

Regarding `CNc1ncnc2[nH]cc(C(=O)c3cnc(NC4CCC(F)(F)CC4)c(F)c3)c12` [Compound P-4054, [6-[(4,4-difluorocyclohexyl)amino]-5-fluoro-3-pyridyl]-[4-(methylamino)-7H-pyrrolo[2,3-d]pyrimidin-5-yl]methanone], the IC50 was less than 10 µM in the assay on SKNSH cells, greater than 10 µM on CYP1A2, greater than 10 µM at CYP2C19 and greater than 10 µM on CYP2D6.
